This series in a line: clinical. To be noted: human, in vivo. An excerpt:
Capsules were bottled and the bottles individually enclosed in an appropriately labeled sealed foil pouch with desiccant and stored at room temperature. […] Subjects were instructed to inhale deeply and forcefully while wearing nose clips. Inhalations were followed by a 5 second breath hold prior to exhalation. […] Leuprolide was supplied in multiple dose vials as a sterile aqueous solution for injection. […] The pH was adjusted with sodium hydroxide or acetic acid. Prior to administration, each vial was visually inspected for particulate matter or discoloration. The leuprolide vials were stored at room temperature. […] The injection was given in the opposite arm to that used for blood sample for pharmacokinetic assessments. There were 2 dosing visits, followed by a post study medical 3 to 14 days after the last dose. The interval between doses was no less than 7 days. […] [table] Relative bioavailability: The bioavailability (BA) of the leuprolide formulation delivered from Turbospin, relative to intravenous injection of leuprolide, was determined from the ratio of log-transformed AUC values, according to the following equation, Relative BA=(InAUCPulmoSphere/InAUCiv) * (nominal dosePulmoSphere/doseiv), […]

Usually bioavailability stands for the share of a dose that reaches the circulation, judged against a reference dose that is usually intravenous. A high value points to much systemic uptake.

Molecules are shown by their SMILES.

The molecule `CCNC(=O)[C@@H]1CCCN1C(=O)[C@H](CCCNC(=N)N)NC(=O)[C@H](CC(C)C)NC(=O)[C@@H](CC(C)C)NC(=O)[C@H](Cc1ccc(O)cc1)NC(=O)[C@H](CO)NC(=O)[C@H](Cc1c[nH]c2ccccc12)NC(=O)[C@H](Cc1c[nH]cn1)NC(=O)[C@@H]1CCC(=O)N1` [leuprolide] registered a bioavailability of roughly 18%.

Source of the values: patent US20030003057A1, “Methods for administering leuprolide by inhalation” (priority 2000, published 2003).
